Results: patent US9931338B2, “Syk inhibitors” (Gilead Sciences, Inc., priority 2014, dated 2018)
Structures can show the parent of a compound that is named as a salt.

Columns and labels:
[1] = system: human hepatocytes; assay: Human Hepatocyte Stability Assay; assay type: in vitro ADME; details: comparison table, Example 12; head prints '(units)', method states L/hr/kg
Description: The human […] stability of the compounds as predicted hepatocyte clearance in L/hr/kg was assessed. Compounds to be tested were diluted to 200 μM (4 μl of 10 mM DMSO stock into 196 μl ACN:H2O (50:50). Propranolol was used as a positive control, and buffer only without hepatocytes as 0% control. These were further diluted 4 μl with 891 μl KHB buffer (InVitroGRO catalog number Z99074) to provide 2× dosing solution. To each well of 24 well plate, 250 μl of the 2× dosing solution was added to each well with 250 μl of hepatocytes cells (1×10^6 viable cells/ml per well) or KHB for control samples to achieve a final compound concentration of 1 μM during incubation. The final solvent concentration was 0.01% DMSO and 0.25% ACN. The culture plate was placed on a rocker and incubated at 37° C., 5% CO2. Samples were collected at time 0, 1, 3, and 6 hours. The loss of parent compound was determined using LC-MS methods against a standard curve.

[2] = cited from earlier work

Row | SMILES | Hheps CL [1] | solubility in methanol [2]
1 | Cc1c(-c2cncc(N)n2)nc(Nc2ccc(N3CCN(C4COC4)CC3)cc2)c2nccn12 [Ex.-4, 6-(6-aminopyrazin-2-yl)-5-methyl-N-(4-(4-(oxetan-3-yl)piperazin-1-yl)phenyl)imidazo[1,2-a]pyrazin-8-amine] | 1.3 mL/min/kg | 
2 | Cc1ncc(-c2cn3ccnc3c(Nc3ccc(N4CCN(C5COC5)CC4)cc3)n2)nc1N [Ex.-1, 6-(6-amino-5-methylpyrazin-2-yl)-N-(4-(4-(oxetan-3-yl)piperazin-1-yl)phenyl)imidazo[1,2-a]pyrazin-8-amine] | 2 mL/min/kg | 
3 | Nc1cncc(-c2cn3ccnc3c(Nc3ccc(N4CCOCC4)cc3)n2)c1 [6-(5-aminopyridin-3-yl)-N-(4-morpholinophenyl)imidazo[1,2-a]pyrazin-8-amine, reference compound] | 11.3 mL/min/kg | 
4 | Nc1cncc(-c2cn3ccnc3c(Nc3ccc(N4CCN(C5COC5)CC4)c(OCCO)c3)n2)n1 [Ex.-5, 2-(5-((6-(6-aminopyrazin-2-yl)imidazo[1,2-a]pyrazin-8-yl)amino)-2-(4-(oxetan-3-yl)piperazin-1-yl)phenoxy)ethanol] | 1.2 mL/min/kg | 
5 | CC[C@]1(O)C[C@H]2CN(CCc3c([nH]c4ccccc34)[C@@](C(=O)OC)(c3cc4c(cc3OC)N(C=O)[C@H]3[C@@](O)(C(=O)OC)[C@H](OC(C)=O)[C@]5(CC)C=CCN6CC[C@]43[C@@H]65)C2)C1 [Vincristine Sulfate, vincristine sulfate] |  | soluble
6 | Nc1cncc(-c2cn3ccnc3c(Nc3ccc(N4CCN(CC(CO)CO)CC4)cc3)n2)n1 [Ex.-6, 2-((4-(4-((6-(6-aminopyrazin-2-yl)imidazo[1,2-a]pyrazin-8-yl)amino)phenyl)piperazin-1-yl)methyl)propane-1,3-diol] | 1.3 mL/min/kg | 
7 | Cc1ncc(-c2cn3ccnc3c(Nc3ccc(N4CCOCC4)cc3)n2)cc1N [6-(5-amino-6-methylpyridin-3-yl)-N-(4-morpholinophenyl)imidazo[1,2-a]pyrazin-8-amine, reference compound] | 13.3 mL/min/kg | 
8 | COc1ccc(Nc2nc(-c3cccc(N)c3)cn3ccnc23)cc1OC [6-(3-aminophenyl)-N-(3,4-dimethoxyphenyl)imidazo[1,2-a]pyrazin-8-amine, reference compound] | 4 mL/min/kg | 
9 | Cc1ncc(-c2cn3ccnc3c(Nc3ccc(N4CCN(C5COC5)CC4)c(OCCO)c3)n2)nc1N [Ex.-7, 2-(5-((6-(6-amino-5-methylpyrazin-2-yl)imidazo[1,2-a]pyrazin-8-yl)amino)-2-(4-(oxetan-3-yl)piperazin-1-yl)phenoxy)ethanol] | 0.83 mL/min/kg | 
10 | COc1ccc(Nc2nc(-c3ccc(N)nc3)cn3ccnc23)cc1OC [6-(6-aminopyridin-3-yl)-N-(3,4-dimethoxyphenyl)imidazo[1,2-a]pyrazin-8-amine, reference compound] | 15 mL/min/kg | 
11 | Nc1cncc(-c2cn3ccnc3c(Nc3ccc(N4CCN(C5COC5)CC4)cc3)n2)n1 [Ex.-2, 6-(6-aminopyrazin-2-yl)-N-(4-(4-(oxetan-3-yl)piperazin-1-yl)phenyl)imidazo[1,2-a]pyrazin-8-amine] | 0.917 mL/min/kg | 
12 | Nc1cncc(-c2cn3ccnc3c(Nc3ccc(N4CCO[C@@H](CO)C4)cc3)n2)n1 [Ex.-3, (R)-(4-(4-((6-(6-aminopyrazin-2-yl)imidazo[1,2-a]pyrazin-8-yl)amino)phenyl)morpholin-2-yl)methanol] | 1.5 mL/min/kg | 
